Source: PMC11403612, “Preparation and Preclinical Characterization of a Simple Ester for Dual Exogenous Supply of Lactate and Beta-hydroxybutyrate” (Journal of Agricultural and Food Chemistry, 2024)

Key:
[1] = In vitro stability in simulated gastric fluid; type: in vitro ADME; conditions: simulated gastric fluid (SGF), pH = 1
Method: The in vitro stability of LaKe was evaluated following incubation in simulated gastric fluid (SGF), simulated intestinal fluid (SIF), fresh and frozen plasma (rats and humans, respectively), and the presence of hepatocytes (rats and humans) and liver microsomes (rats and humans). At the chosen time points, the mixtures were analyzed by LC-MS/MS to quantify the remaining LaKe and all assays included at least one control compound with known pharmacokinetic properties. […]
centrifuged at 4000 rpm, 4℃ for 20 min. 60 μL of supernatant was mixed with 180 μL of purified water for subsequent LC/MS/MS analysis.
LC-MS/MS Condition: ACQUITY UPLC BEH C18 1.7um 2.1 * 50mm Column (Part No.186002350). Mobile phase: A: 0.1% Formic Acid in Water; B: 0.1% Formic Acid in ACN. […]
Samples were incubated at 37 ℃, 600 rpm for the appointed time. At the chosen time points (60, 120, 360, 1440 minutes) samples were immediately mixed with 400 μL of cold acetonitrile containing 200 ng/mL tolbutamide and labetalol (internal standards). 200 μL of suspension was removed and mixed completely with 400 μL of cold acetonitrile containing 200 ng/mL tolbutamide and labetalol again. The T0 samples were prepared by transferring 198 μL of SIF solution to corresponding well after adding 400 μL of cold acetonitrile containing 200 ng/mL tolbutamide and then mixing completely. The samples were […]
Stability of LaKe in plasma […]

[2] = tested on: N-L-lactoyl-phenylalanine (Lac-Phe); test: Plasma N-L-lactoyl-phenylalanine after oral LaKe in rats; type: in vivo, Sprague–Dawley rats; conditions: 4.5 g/kg oral
Method: Male Sprague–Dawley rats (300–350g, Taconic, Ry, Denmark) were kept for acclimatization at a constant temperature of 23 °C with a 12 h light-dark cycle and with unlimited access to food and water. All animal handling was in accordance with national guidelines in Denmark and the guidelines from the Directive 2010/63/EU of the European Parliament on the protection of animals used for scientific purposes, and all experiments conformed to Danish Law (Act. No. 1306 of 23/11/2007). The experimental protocol was approved by the Danish Animal Expectorate (2018-15-0201-01475).
The rats were randomly selected to receive either LaKe (n = 8) or placebo (n = 8). […]
Concentrations of non-esterified free fatty acids (FFA) were measured using a NEFA-HR(2) kit (Wako, Chemicals Gmbh, Germany). Absorbance was measured by spectrometry (PHERAstar FS, BMG LABTECH, […]
Quantification of N-L-lactoyl phenylalanine (Lac-Phe) by LC-MS/MS […]
Pure calibrant samples were prepared from an authentic standard compound (N-L-lactoyl phenylalanine), using the plasma sample preparation method at concentrations equivalent to […] in the original sample. The lower limit of quantification for N-L-lactoyl phenylalanine (Lac-Phe) quantification was estimated to 10 nM. […]

CC(O)CCOC(=O)C(C)O (centres unmarked) [LaKe, 3-hydroxybutyl 2-hydroxypropanoate]
half-life [1]: > 720 min
change in plasma Lac-Phe [2]: increase
